From publication PMC11012124, “Synthesis of Novel Triazine-Based Chalcones and 8,9-dihydro-7H-pyrimido[4,5-b][1,4]diazepines as Potential Leads in the Search of Anticancer, Antibacterial and Antifungal Agents” (International Journal of Molecular Sciences, 2024)

How the values were obtained:
SF-295 = experiment: cells; details: Homo sapiens, SF-295, 48 h; for CC50: read-out: LC50
M14 = experiment: cells; details: Homo sapiens, M14, 48 h; for CC50: read-out: LC50
SW-620 = experiment: cells; details: Homo sapiens, SW-620, 48 h; for CC50: read-out: LC50
HL-60(TB) = experiment: cells; details: Homo sapiens, HL-60, 48 h; for CC50: read-out: LC50
OVCAR-5 = experiment: cells; details: Homo sapiens, OVCAR-5, 48 h; for CC50: read-out: LC50
SK-MEL-5 = experiment: cells; details: Homo sapiens, SK-MEL-5, 48 h; for CC50: read-out: LC50
SNB-19 = experiment: cells; details: Homo sapiens, SNB-19, 48 h; for CC50: read-out: LC50
SNB-75 = experiment: cells; details: Homo sapiens, SNB-75, 48 h; for CC50: read-out: LC50
NCI-H322M = experiment: cells; details: Homo sapiens, 48 h; for CC50: read-out: LC50
EKVX = experiment: cells; details: Homo sapiens, 48 h; for CC50: read-out: LC50
HOP-62 = experiment: cells; details: Homo sapiens, HOP-62, 48 h; for CC50: read-out: LC50
HCT-116 = experiment: cells; details: Homo sapiens, HCT-116, 48 h; for CC50: read-out: LC50
HCT-15 = experiment: cells; details: Homo sapiens, HCT-15, 48 h; for CC50: read-out: LC50
OVCAR-8 = experiment: cells; details: Homo sapiens, OVCAR-8, 48 h; for CC50: read-out: LC50
MDA-MB-435 = experiment: cells; details: Homo sapiens, MDA-MB-435, 48 h; for CC50: read-out: LC50
BT-549 = experiment: cells; details: Homo sapiens, BT-549, 48 h; for CC50: read-out: LC50
SN12C = experiment: cells; details: Homo sapiens, 48 h; for CC50: read-out: LC50
786-0 = experiment: cells; details: Homo sapiens, 786-0, 48 h; for CC50: read-out: LC50
SK-MEL-28 = experiment: cells; details: Homo sapiens, SK-MEL-28, 48 h; for CC50: read-out: LC50
KM12 = experiment: cells; details: Homo sapiens, KM12, 48 h; for CC50: read-out: LC50
U251 = experiment: cells; details: Homo sapiens, U-251, 48 h; for GI50: U251, 48 h; for CC50: read-out: LC50
NCI-H23 = experiment: cells; details: Homo sapiens, NCI-H23, 48 h; for CC50: read-out: LC50
A549/ATCC = experiment: cells; details: Homo sapiens, A549, 48 h; for CC50: read-out: LC50
UACC-257 = experiment: cells; details: Homo sapiens, UACC-257, 48 h; for CC50: read-out: LC50
CCRF-CEM = experiment: cells; details: Homo sapiens, 48 h; for CC50: read-out: LC50
RPMI-8226 = experiment: cells; details: Homo sapiens, RPMI-8226, 48 h; for CC50: read-out: LC50
NCI-H460 = experiment: cells; details: Homo sapiens, NCI-H460, 48 h; for CC50: read-out: LC50
NCI-H226 = experiment: cells; details: Homo sapiens, NCI-H226, 48 h; for CC50: read-out: LC50
UO-31 = experiment: cells; details: Homo sapiens, UO-31, 48 h; for CC50: read-out: LC50
MALME-3M = experiment: cells; details: Homo sapiens, 48 h; for CC50: read-out: LC50
SF-268 = experiment: cells; details: Homo sapiens, SF-268, 48 h; for CC50: read-out: LC50
ACHN = experiment: cells; details: Homo sapiens, 48 h; for CC50: read-out: LC50
OVCAR-4 = experiment: cells; details: Homo sapiens, OVCAR-4, 48 h; for CC50: read-out: LC50
COLO 205 = experiment: cells; details: Homo sapiens, COLO 205, 48 h; for CC50: read-out: LC50
SK-MEL-2 = experiment: cells; details: Homo sapiens, SK-MEL-2, 48 h; for CC50: read-out: LC50
IGROV1 = experiment: cells; details: Homo sapiens, IGROV-1, 48 h; for CC50: read-out: LC50
60 cancer cell lines = experiment: NCI-60 one-dose screen (10 μM); type: cell-based; details: Homo sapiens; one dose of 10 μM, mean over 60 cancer cell lines; read-out: Mean Growth Percent (MGP)
Description: Additionally, the mean of the growth percentages (MGP) of each compound against all the 60 cancer cell lines is also reported, which is used as one of the selection criteria to continue with tests at five concentration doses.

Cc1ccc(C2CC(c3ccc(S(=O)(=O)NCCNc4nc(Nc5ccc(F)cc5)nc(N(C)C)n4)cc3)=Nc3c(N)nc(N)nc3N2)cc1 (stereo not drawn) [31b]
GI50 (SF-295): 6.6 µM | CC50 (SF-295): > 100 µM | GI50 (M14): 4.56 µM | CC50 (M14): > 100 µM | GI50 (SW-620): 8.04 µM | CC50 (SW-620): > 100 µM | GI50 (HL-60(TB)): 2.94 µM | CC50 (HL-60(TB)): 20.2 µM | GI50 (OVCAR-5): > 100 µM | CC50 (OVCAR-5): > 100 µM | GI50 (SK-MEL-5): 4.98 µM | CC50 (SK-MEL-5): 20.6 µM | GI50 (SNB-19): 13.1 µM | CC50 (SNB-19): > 100 µM | GI50 (SNB-75): > 100 µM | CC50 (SNB-75): > 100 µM | GI50 (NCI-H322M): > 100 µM | CC50 (NCI-H322M): > 100 µM | GI50 (EKVX): 5.84 µM | CC50 (EKVX): > 100 µM | GI50 (HOP-62): > 100 µM | CC50 (HOP-62): > 100 µM | GI50 (HCT-116): 3.81 µM | CC50 (HCT-116): > 100 µM | GI50 (HCT-15): 4.95 µM | CC50 (HCT-15): > 100 µM | CC50 (OVCAR-8): > 100 µM | GI50 (MDA-MB-435): 8.79 µM | CC50 (MDA-MB-435): > 100 µM | GI50 (BT-549): 5.46 µM | CC50 (BT-549): 59.4 µM | GI50 (SN12C): > 100 µM | CC50 (SN12C): > 100 µM | GI50 (786-0): 7.06 µM | CC50 (786-0): > 100 µM | GI50 (SK-MEL-28): 26.9 µM | CC50 (SK-MEL-28): > 100 µM | GI50 (KM12): 4.56 µM | CC50 (KM12): > 100 µM | GI50 (U251): 7.08 µM | CC50 (U251): > 100 µM | GI50 (NCI-H23): 78.8 µM | CC50 (NCI-H23): > 100 µM | GI50 (A549/ATCC): > 100 µM | CC50 (A549/ATCC): > 100 µM | GI50 (UACC-257): 26 µM | CC50 (UACC-257): > 100 µM | GI50 (CCRF-CEM): 2.81 µM | CC50 (CCRF-CEM): > 100 µM | GI50 (RPMI-8226): 2.94 µM | CC50 (RPMI-8226): > 100 µM | GI50 (NCI-H460): 4.76 µM | CC50 (NCI-H460): > 100 µM | GI50 (NCI-H226): > 100 µM | CC50 (NCI-H226): > 100 µM | GI50 (UO-31): > 100 µM | CC50 (UO-31): > 100 µM | GI50 (MALME-3M): 4.65 µM | CC50 (MALME-3M): 33.2 µM | GI50 (SF-268): 7.53 µM | CC50 (SF-268): > 100 µM | GI50 (ACHN): > 100 µM | CC50 (ACHN): > 100 µM | CC50 (OVCAR-4): > 100 µM | GI50 (COLO 205): 11.5 µM | CC50 (COLO 205): > 100 µM | GI50 (SK-MEL-2): 11.2 µM | CC50 (SK-MEL-2): 77.7 µM | GI50 (IGROV1): 64.4 µM | CC50 (IGROV1): > 100 µM | activity at 10 µM (60 cancer cell lines): 48.4%

CN(C)c1nc(NCCNS(=O)(=O)c2ccc(C(=O)/C=C/c3ccccc3)cc2)nc(Nc2ccc(F)cc2)n1 [24a]
GI50 (SF-295): 6.96 µM | CC50 (SF-295): 44.5 µM | GI50 (M14): 5.98 µM | CC50 (M14): 51.5 µM | GI50 (SW-620): 5.56 µM | CC50 (SW-620): 54.3 µM | GI50 (HL-60(TB)): 3.88 µM | CC50 (HL-60(TB)): > 100 µM | GI50 (OVCAR-5): 13.3 µM | CC50 (OVCAR-5): 53.2 µM | GI50 (SK-MEL-5): 4.7 µM | CC50 (SK-MEL-5): 41.6 µM | GI50 (SNB-19): 10.4 µM | CC50 (SNB-19): 51 µM | GI50 (SNB-75): 3.23 µM | CC50 (SNB-75): > 100 µM | GI50 (NCI-H322M): 9.83 µM | CC50 (NCI-H322M): 76.9 µM | GI50 (EKVX): 4.48 µM | CC50 (EKVX): 40.6 µM | GI50 (HOP-62): 11.8 µM | CC50 (HOP-62): 60.6 µM | GI50 (HCT-116): 1.72 µM | CC50 (HCT-116): 6.1 µM | GI50 (HCT-15): 2.04 µM | CC50 (HCT-15): 7.25 µM | GI50 (OVCAR-8): 12.2 µM | CC50 (OVCAR-8): 57.1 µM | GI50 (MDA-MB-435): 7.44 µM | CC50 (MDA-MB-435): 59.8 µM | GI50 (BT-549): 13.9 µM | CC50 (BT-549): 54.3 µM | GI50 (SN12C): 8.2 µM | CC50 (SN12C): 46.2 µM | GI50 (786-0): 11.2 µM | CC50 (786-0): 56.9 µM | GI50 (SK-MEL-28): 10.2 µM | CC50 (SK-MEL-28): 48.4 µM | GI50 (KM12): 3.74 µM | CC50 (KM12): 54 µM | GI50 (U251): 10.4 µM | CC50 (U251): 57.8 µM | GI50 (NCI-H23): 10.1 µM | CC50 (NCI-H23): 50 µM | GI50 (A549/ATCC): 8.33 µM | CC50 (A549/ATCC): 73.5 µM | GI50 (UACC-257): 12.6 µM | CC50 (UACC-257): 61 µM | GI50 (CCRF-CEM): 6.59 µM | CC50 (CCRF-CEM): > 100 µM | GI50 (RPMI-8226): 3.04 µM | CC50 (RPMI-8226): > 100 µM | GI50 (NCI-H460): 4.34 µM | CC50 (NCI-H460): 56.5 µM | GI50 (NCI-H226): 5.22 µM | CC50 (NCI-H226): 57.3 µM | GI50 (UO-31): 4.6 µM | CC50 (UO-31): 41.9 µM | GI50 (MALME-3M): 12.6 µM | CC50 (MALME-3M): 54.5 µM | GI50 (SF-268): 5.65 µM | CC50 (SF-268): 65.2 µM | GI50 (ACHN): 4.92 µM | CC50 (ACHN): 43.5 µM | GI50 (OVCAR-4): 4.39 µM | CC50 (OVCAR-4): 99.3 µM | GI50 (COLO 205): 5.46 µM | CC50 (COLO 205): 56.7 µM | GI50 (SK-MEL-2): 10.6 µM | CC50 (SK-MEL-2): 55.4 µM | GI50 (IGROV1): 11.2 µM | CC50 (IGROV1): 50.6 µM | activity at 10 µM (60 cancer cell lines): 13.6%
